Assay [1] has as its system cyclooxygenase. The assay can be described thus: inhibition of synthesis of cyclooxygenase products TxB2 and PGE2 (rat polymorphonuclear leukocytes). The class given is cell-based. Particulars: 10 μM; rat PMN; negative = potentiation of PGE2 synthesis. In short, it runs like this:
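Glycogen-elicited peritoneal PMN from female Wistar rats, 2×10^7 cells/ml in HBSS with Ca^++, Mg^++ and 10 mM L-cysteine, preincubated with compound 10 min at 37° C. Stimulated 10 min with A23187 (10 μM) plus 0.5 μM [14C] arachidonic acid; TxB2 and PGE2 quantified by TLC, autoradiography and scintillation counting.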

For assay [2], the target named is T1, LTD4 (Cavia porcellus, UniProt Q2NNR5).
T1 construct: isolated guinea pig trachea; from tissue; host or cells: guinea pig tracheal rings
T1 sequence (Q2NNR5 1-340): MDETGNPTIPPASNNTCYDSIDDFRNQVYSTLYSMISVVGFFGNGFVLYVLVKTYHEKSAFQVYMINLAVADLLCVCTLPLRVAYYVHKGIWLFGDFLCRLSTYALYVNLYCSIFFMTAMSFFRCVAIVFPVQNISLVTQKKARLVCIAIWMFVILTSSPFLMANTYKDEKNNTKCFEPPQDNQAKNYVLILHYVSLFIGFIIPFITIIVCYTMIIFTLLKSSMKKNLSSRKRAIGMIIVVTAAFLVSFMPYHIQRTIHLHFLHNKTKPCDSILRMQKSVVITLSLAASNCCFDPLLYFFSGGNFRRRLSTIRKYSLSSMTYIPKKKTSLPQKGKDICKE
The assay can be described thus: LTD4 antagonist activity in isolated guinea pig trachea. The class given is cell-based. The settings on record: 1 × 10^-5 M. How it is done: The LTD4 antagonist activity of the compounds of the invention is assessed in the in vitro isolated guinea pig trachea assay. Male Hartley guinea pigs (350-400 g) are euthanized by a blow to the head, the neck is opened and the trachea removed. The trachea is maintained in aerated physiological salt solution, cleared of connective tissue and fat and cut into rings approximately 2 mm in width (usually containing two cartilaginous segments per ring). Two pieces of silk suture are then passed through the lumen of the tracheal ring and are tied around the cartilage, one on each side of the trachealis muscle. The tracheal ring is suspended between a glass hook and a force displacement transducer in a 10 ml organ bath for measurement of isometric tension. Tissues are maintained at 37° C. in aerated ([…] /5% CO2) physiological salt solution of the following composition: […] The tracheal rings are maintained at 2 g resting tension and equilibrated for 45 minutes (with frequence washing and readjustment of resting tension). The tracheal rings are first contracted by the addition of carbachol (3×10^-6 M), to determine tissue responsiveness and establish a reference contraction. On attainment of a stable level of contraction (approximately 30 minutes), the tissues are washed several times until baseline tension has been restored and the re-equilibrated for 30 minutes. The tissues are then incubated for 45 minutes with a test antagonist (either 1×10^-6 M or 1×10^-5 M) or 10 μl of an appropriate solvent control (control, non-treated). One tissue in each group serves as the control. Twenty minutes prior to the construction of the LTD4 cumulative concentration-response curve, L-[…]×10^-2 M final bath concentration) is added to inhibit bioconversion of LTD4 to LTE4. Only one LTD4 concentration-response curve is constructed in each tissue. All responses to LTD4 in an individual tissue are measured as a percentage of the reference contraction of that tissue to carbachol. LTD4 antagonist activity is determined by comparison of the concentration response curves of LTD4 in the presence and absence of antagonist. Assessment of the relative rightward shift of the antagonist treated curve relative to the solvent (control) treated tissue is calculated as a concentration ratio (Eq. A) and used in subsequent calculations to derive an antagonist pKB value (Eqs. B and C). In the vent that the maximum response to LTD4 is depressed, the EC50 for that particular curve is determined, an "apparent" pKB reported, and the compound reported as "not-competitive." [formula] If a compound is found to be active and/or depress the maximal response to LTD4, then a range of concentrations of the test compound should be used generating multiple concentration ratios which would than be used to perform a Schild analysis, and determination of a pA2 value where appropriate.

Where a name gives a salt, the structure may show the parent alone.

As usually defined, the Kb is the affinity of an antagonist, worked out from how it opposes an agonist. Turning to `C[C@H](C(=O)N(C)O)c1ccc2cc(OCc3ccc4ccccc4n3)ccc2c1` [Example 24, (S)-N-Hydroxy-α-N-dimethyl-6-(2-quinolinylmethoxy)-2-naphthaleneacetamide], the “% Inhibition of CO (as PGE2)” value in assay [1] came out at 13%. This molecule had a Kb in assay [2] of 501 nM.
For `C[C@H](C(=O)O)c1ccc2cc(OCc3ccc4ccccc4n3)ccc2c1` [Example 17, S-(α)-α-Methyl-6-(2-quinolinylmethoxy)-2-naphthaleneacetic acid, tromethanime salt], the “% Inhibition of CO (as PGE2)” value in assay [1] is on record as 20%. In assay [2], this molecule showed a Kb of 631 nM.
